This assay concerns Human fibroblasts. Put plainly: Stimulation of collagen synthesis measured by incorporation of tritiated proline in fibroblast collagenic fractions. The class given is cell-based. Conditions: 72 hours of treatment. The method, then:
The stimulation of collagen synthesis by peptides of the present invention was evaluated by measuring the incorporation of tritiated proline in fibroblasts collagenic fractions. The assay was conducted as follows. Human fibroblasts (obtained from the human biopsy of a person) were seeded in 24-well plates at approximately 40,000 cells per well in 1 ml of culture medium. The culture medium contained DMEM (Invitrogen S.a.r.l., Cergy Pontoise, France) supplemented with 10% Fetal Calf Serum (FCS, Cambrex Bio Science Paris S.a.r.l., Emerainville, France), 1% Glutamax (Invitrogen S.a.r.l.), 4 μg/ml gentamicine (Invitrogen S.a.r.l.), and 2.5 μg/ml Fungizone (Invitrogen S.a.r.l.). Cells were placed at 37° C. under 5% CO2 in a humidified atmosphere for 72 hours.
The culture medium was the removed and replaced with 1 ml of either: (i) incubation medium alone (untreated control); (ii) incubation medium further containing 1 ng/ml TGFb1 (R&D Systems Europe, Lille, France) for use as a stimulated positive control; or (iii) incubation medium further containing one of the tested peptides at a concentration of 1 μg/ml or 10 μg/ml. The incubation medium contained DMEM supplemented with 2% FCS, 1% Glutamax, 4 μg/ml gentamicine, 2.5 μg/ml Fungizone, 50 μg/ml ascorbic acid, 50 μg/ml b-aminoproionitrile, and 3.4 μg/ml a ketoglutarate.
During the last 24 hours of incubation, five μCi of tritiated proline (L-2,3-3H proline, Amersham Biosciences Europe, Saclay, France) was also added to each well. Each condition (untreated control, positive control and tested peptide) was performed in triplicate. In order to normalize the results, the same experiment was performed in parallel, except that tritiated proline was omitted. At the end of the treatment, cells were counted with a coulter counter. After 72 hours of treatment, incubation medium (supernatants) were collected in 2 ml microtubes and frozen at −20° C.
In order to perform the collagen extraction, 1 ml of cold 20% TCA (Sigma-Aldrich, Lyon, France) was added to 1 ml of supernatant. The samples were then vortexed, incubated for 5 minutes (min) at −20° C., and let stand on ice for 30 min. The samples were then centrifuged (2300 g, 5 min, 4° C.). The supernatants were then eliminated, and the pellets were rinsed with 1 ml of cold 5% TCA, vortexed, and centrifuged (2300 g, 5 min, 4° C.). The pellets were then rinsed twice with 5% TCA following the same procedure as described above. The pellets were then dissolved in 0.3 ml of 0.05 N NaOH and neutralized with 0.1N HCl to reach pH 6-8. Then, 0.2 ml of protein solution was incubated for 2 hours at 37° C. in 2×Tris HCl Buffer containing 10 units of collagenase activity (Clostridium hystolyticum Type III collagenase, Sigma-Aldrich, Lyon, France).
The enzymatic reaction was then stopped by precipitation with 500 μl of 15% TCA and 500 μl of 0.75% tannic acid. Samples were then incubated 30 min on ice. The precipitates were then centrifuged (2300 g, 5 min, 4° C.). The supernatants containing collagen fractions were collected, and scintillation liquid (Ecolume ICN) was added to each sample (5 ml to 100 μl sample). Then, radioactivity was measured in a β-scintillation counter.
The rate of collagen synthesis was calculated as follows: Synthesis rate=(number of dpm/cell number)*1000
The percentage of stimulation was calculated as follows: % of stimulation=[(synthesis rate in sample-synthesis rate in control)/(synthesis rate in control)]*100.

[1] abbreviates: peptide at 1 ug/ml in incubation medium.
Setting [2] is: peptide at 10 ug/ml in incubation medium.

For the substance “TGF b: potent stimulator of collagen synthesis in dermal fibroblast used as positive control [reference compound]”, the “Percent stimulation vs. control” value runs as follows: (1 ng/ml in incubation medium, positive control) 45.7%; (1 ng/ml in incubation medium, positive control, listed as TGFb) 45%.
On to “H2-Thr-Arg-Asn-Asp-Lys-Leu-OH (H-TRNDKL-OH) [Peptide 2]”, for which the “Percent stimulation vs. control” value by setting is: under setting [1], 23.5%; (peptide at 1 ug/ml in incubation medium, listed as TRNDKL) 25%; under setting [2], 42.6%; (peptide at 10 ug/ml in incubation medium, listed as TRNDKL) 42%.
As for “H2-Val-Arg-Phe-Thr-Arg-Asn-OH (H-VRFTRN-OH) [Peptide 1]”, the “Percent stimulation vs. control” value reads like this: under setting [1], 14.8%; (peptide at 1 ug/ml in incubation medium, listed as VFTRN) 15%; under setting [2], 43.1%; (peptide at 10 ug/ml in incubation medium, listed as VFTRN) 43%.

The record behind these values is US20100093637A1, “PEPTIDES AND USE THEREOF” (priority 2005, published 2010).
